Test results reported in patent US12391648B2, “Pyridyloxy thioester derivative and preparation method therefor, herbicidal composition, and application” (Qingdao Kingagroot Chemical Compound Co., Ltd., priority 2018, dated 2025).

The molecules below were run on Galium spurium (assay: Post-emergence test experiment (Table 3, 1000 g/ha)). Settings: post-emergence spray, after 3 weeks, fresh weight inhibition.
Type: in vivo
Outline: (§1)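 Weed seeds sown in soil-filled pots in greenhouse, sprayed at 2-3 leaf stage (2 weeks after sowing) with compound in acetone/tween-80 plus methyl oleate emulsible concentrate (1.5 L/ha) diluted in water. Fresh-weight growth inhibition scored after 3 weeks on 0-5 scale (5: >85%, 0: <5%).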

| Structure (SMILES) | Activity level (growth inhibition rate) Galium spurium |
| --- | --- |
| CCCCCCCCSC(=O)C(C)Oc1nc(F)c(Cl)c(N)c1Cl (stereo not drawn) [Compound 73] | 5 (Level 5: the growth inhibition rate is greater than 85%) |
| CSC(=O)C(C)Oc1ncc(C(C)C)c(N)c1Cl (stereo not drawn) [Compound 9] | 5 (Level 5: the growth inhibition rate is greater than 85%) |
| CC(Oc1nc(F)c(Cl)c(N)c1Cl)C(=O)Sc1cccs1 (stereo not drawn) [Compound 121] | 5 (Level 5: the growth inhibition rate is greater than 85%) |
| CSC(=O)C(C)Oc1nc(Cl)c(Cl)c(N)c1Cl (stereo not drawn) [Compound 2] | 5 (Level 5: the growth inhibition rate is greater than 85%) |
| CCCSC(=O)C(C)Oc1nc(F)c(Cl)c(N)c1Cl (stereo not drawn) [Compound 67] | 5 (Level 5: the growth inhibition rate is greater than 85%) |
| CC(Oc1nc(F)c(Cl)c(N)c1Cl)C(=O)SC(N)=O (stereo not drawn) [Compound 100] | 5 (Level 5: the growth inhibition rate is greater than 85%) |
| CSC(=O)C(C)Oc1ncc(I)c(N)c1I (stereo not drawn) [Compound 13] | 5 (Level 5: the growth inhibition rate is greater than 85%) |
| COC(=O)CSC(=O)C(C)Oc1nc(F)c(Cl)c(N)c1Cl (stereo not drawn) [Compound 93] | 5 (Level 5: the growth inhibition rate is greater than 85%) |
| CC(Oc1nc(F)c(Cl)c(N)c1Cl)C(=O)SCCF (stereo not drawn) [Compound 158] | 5 (Level 5: the growth inhibition rate is greater than 85%) |
| CNc1c(Cl)c(F)nc(OC(C)C(=O)SC)c1Cl (stereo not drawn) [Compound 127] | 5 (Level 5: the growth inhibition rate is greater than 85%) |
| CCCCCCCCCSC(=O)C(C)Oc1nc(F)c(Cl)c(N)c1Cl (stereo not drawn) [Compound 140] | 5 (Level 5: the growth inhibition rate is greater than 85%) |
| CC(Oc1nc(F)c(Cl)c(N)c1Cl)C(=O)Sc1cccnc1 (stereo not drawn) [Compound 115] | 5 (Level 5: the growth inhibition rate is greater than 85%) |
| C#CCSC(=O)C(C)Oc1nc(F)c(Cl)c(N)c1Cl (stereo not drawn) [Compound 90] | 5 (Level 5: the growth inhibition rate is greater than 85%) |

Each molecule was assayed on Leptochloa chinensis in the same assay as above. Settings: post-emergence spray, after 3 weeks, fresh weight inhibition.
Type: in vivo
Outline: as §1

| Structure (SMILES) | Activity level (growth inhibition rate) Leptochloa chinensis |
| --- | --- |
| CCCCCCCCSC(=O)C(C)Oc1nc(F)c(Cl)c(N)c1Cl (stereo not drawn) [Compound 73] | 5 (Level 5: the growth inhibition rate is greater than 85%) |
| CSC(=O)C(C)Oc1ncc(C(C)C)c(N)c1Cl (stereo not drawn) [Compound 9] | 5 (Level 5: the growth inhibition rate is greater than 85%) |
| CC(Oc1nc(F)c(Cl)c(N)c1Cl)C(=O)Sc1cccs1 (stereo not drawn) [Compound 121] | 5 (Level 5: the growth inhibition rate is greater than 85%) |
| CSC(=O)C(C)Oc1nc(Cl)c(Cl)c(N)c1Cl (stereo not drawn) [Compound 2] | 5 (Level 5: the growth inhibition rate is greater than 85%) |
| CCCSC(=O)C(C)Oc1nc(F)c(Cl)c(N)c1Cl (stereo not drawn) [Compound 67] | 5 (Level 5: the growth inhibition rate is greater than 85%) |
| CC(Oc1nc(F)c(Cl)c(N)c1Cl)C(=O)SC(N)=O (stereo not drawn) [Compound 100] | 5 (Level 5: the growth inhibition rate is greater than 85%) |
| CSC(=O)C(C)Oc1ncc(I)c(N)c1I (stereo not drawn) [Compound 13] | 5 (Level 5: the growth inhibition rate is greater than 85%) |
| COC(=O)CSC(=O)C(C)Oc1nc(F)c(Cl)c(N)c1Cl (stereo not drawn) [Compound 93] | 5 (Level 5: the growth inhibition rate is greater than 85%) |
| CC(Oc1nc(F)c(Cl)c(N)c1Cl)C(=O)SCCF (stereo not drawn) [Compound 158] | 5 (Level 5: the growth inhibition rate is greater than 85%) |
| CNc1c(Cl)c(F)nc(OC(C)C(=O)SC)c1Cl (stereo not drawn) [Compound 127] | 5 (Level 5: the growth inhibition rate is greater than 85%) |
| CCCCCCCCCSC(=O)C(C)Oc1nc(F)c(Cl)c(N)c1Cl (stereo not drawn) [Compound 140] | 5 (Level 5: the growth inhibition rate is greater than 85%) |
| CC(Oc1nc(F)c(Cl)c(N)c1Cl)C(=O)Sc1cccnc1 (stereo not drawn) [Compound 115] | 5 (Level 5: the growth inhibition rate is greater than 85%) |
| C#CCSC(=O)C(C)Oc1nc(F)c(Cl)c(N)c1Cl (stereo not drawn) [Compound 90] | 5 (Level 5: the growth inhibition rate is greater than 85%) |

Each molecule was assayed on Monochoria vaginalis in the same assay as above. Settings: post-emergence spray, after 3 weeks, fresh weight inhibition.
Type: in vivo
Outline: as §1

| Structure (SMILES) | Activity level (growth inhibition rate) Monochoria Vaginalis |
| --- | --- |
| CCCCCCCCSC(=O)C(C)Oc1nc(F)c(Cl)c(N)c1Cl (stereo not drawn) [Compound 73] | 5 (Level 5: the growth inhibition rate is greater than 85%) |
| CSC(=O)C(C)Oc1ncc(C(C)C)c(N)c1Cl (stereo not drawn) [Compound 9] | 5 (Level 5: the growth inhibition rate is greater than 85%) |
| CC(Oc1nc(F)c(Cl)c(N)c1Cl)C(=O)Sc1cccs1 (stereo not drawn) [Compound 121] | 5 (Level 5: the growth inhibition rate is greater than 85%) |
| CSC(=O)C(C)Oc1nc(Cl)c(Cl)c(N)c1Cl (stereo not drawn) [Compound 2] | 5 (Level 5: the growth inhibition rate is greater than 85%) |
| CCCSC(=O)C(C)Oc1nc(F)c(Cl)c(N)c1Cl (stereo not drawn) [Compound 67] | 5 (Level 5: the growth inhibition rate is greater than 85%) |
| CC(Oc1nc(F)c(Cl)c(N)c1Cl)C(=O)SC(N)=O (stereo not drawn) [Compound 100] | 5 (Level 5: the growth inhibition rate is greater than 85%) |
| CSC(=O)C(C)Oc1ncc(I)c(N)c1I (stereo not drawn) [Compound 13] | 5 (Level 5: the growth inhibition rate is greater than 85%) |
| COC(=O)CSC(=O)C(C)Oc1nc(F)c(Cl)c(N)c1Cl (stereo not drawn) [Compound 93] | 5 (Level 5: the growth inhibition rate is greater than 85%) |
| CC(Oc1nc(F)c(Cl)c(N)c1Cl)C(=O)SCCF (stereo not drawn) [Compound 158] | 5 (Level 5: the growth inhibition rate is greater than 85%) |
| CNc1c(Cl)c(F)nc(OC(C)C(=O)SC)c1Cl (stereo not drawn) [Compound 127] | 5 (Level 5: the growth inhibition rate is greater than 85%) |
| CCCCCCCCCSC(=O)C(C)Oc1nc(F)c(Cl)c(N)c1Cl (stereo not drawn) [Compound 140] | 5 (Level 5: the growth inhibition rate is greater than 85%) |
| CC(Oc1nc(F)c(Cl)c(N)c1Cl)C(=O)Sc1cccnc1 (stereo not drawn) [Compound 115] | 5 (Level 5: the growth inhibition rate is greater than 85%) |
| C#CCSC(=O)C(C)Oc1nc(F)c(Cl)c(N)c1Cl (stereo not drawn) [Compound 90] | 5 (Level 5: the growth inhibition rate is greater than 85%) |

These molecules were tested on Abutilon theophrasti in the same assay as above. Settings: post-emergence spray, after 3 weeks, fresh weight inhibition.
Type: in vivo
Outline: as §1

| Structure (SMILES) | Activity level (growth inhibition rate) Abutilon theophrasti |
| --- | --- |
| CCCCCCCCSC(=O)C(C)Oc1nc(F)c(Cl)c(N)c1Cl (stereo not drawn) [Compound 73] | 5 (Level 5: the growth inhibition rate is greater than 85%) |
| CSC(=O)C(C)Oc1ncc(C(C)C)c(N)c1Cl (stereo not drawn) [Compound 9] | 5 (Level 5: the growth inhibition rate is greater than 85%) |
| CC(Oc1nc(F)c(Cl)c(N)c1Cl)C(=O)Sc1cccs1 (stereo not drawn) [Compound 121] | 5 (Level 5: the growth inhibition rate is greater than 85%) |
| CSC(=O)C(C)Oc1nc(Cl)c(Cl)c(N)c1Cl (stereo not drawn) [Compound 2] | 5 (Level 5: the growth inhibition rate is greater than 85%) |
| CCCSC(=O)C(C)Oc1nc(F)c(Cl)c(N)c1Cl (stereo not drawn) [Compound 67] | 5 (Level 5: the growth inhibition rate is greater than 85%) |
| CC(Oc1nc(F)c(Cl)c(N)c1Cl)C(=O)SC(N)=O (stereo not drawn) [Compound 100] | 5 (Level 5: the growth inhibition rate is greater than 85%) |
| CSC(=O)C(C)Oc1ncc(I)c(N)c1I (stereo not drawn) [Compound 13] | 5 (Level 5: the growth inhibition rate is greater than 85%) |
| COC(=O)CSC(=O)C(C)Oc1nc(F)c(Cl)c(N)c1Cl (stereo not drawn) [Compound 93] | 5 (Level 5: the growth inhibition rate is greater than 85%) |
| CC(Oc1nc(F)c(Cl)c(N)c1Cl)C(=O)SCCF (stereo not drawn) [Compound 158] | 5 (Level 5: the growth inhibition rate is greater than 85%) |
| CNc1c(Cl)c(F)nc(OC(C)C(=O)SC)c1Cl (stereo not drawn) [Compound 127] | 5 (Level 5: the growth inhibition rate is greater than 85%) |
| CCCCCCCCCSC(=O)C(C)Oc1nc(F)c(Cl)c(N)c1Cl (stereo not drawn) [Compound 140] | 5 (Level 5: the growth inhibition rate is greater than 85%) |
| CC(Oc1nc(F)c(Cl)c(N)c1Cl)C(=O)Sc1cccnc1 (stereo not drawn) [Compound 115] | 5 (Level 5: the growth inhibition rate is greater than 85%) |
| C#CCSC(=O)C(C)Oc1nc(F)c(Cl)c(N)c1Cl (stereo not drawn) [Compound 90] | 5 (Level 5: the growth inhibition rate is greater than 85%) |

The molecules below were run on Setaria viridis in the same assay as above. Settings: post-emergence spray, after 3 weeks, fresh weight inhibition.
Type: in vivo
Outline: as §1

| Structure (SMILES) | Activity level (growth inhibition rate) Setaria viridis |
| --- | --- |
| CCCCCCCCSC(=O)C(C)Oc1nc(F)c(Cl)c(N)c1Cl (stereo not drawn) [Compound 73] | 5 (Level 5: the growth inhibition rate is greater than 85%) |
| CSC(=O)C(C)Oc1ncc(C(C)C)c(N)c1Cl (stereo not drawn) [Compound 9] | 5 (Level 5: the growth inhibition rate is greater than 85%) |
| CC(Oc1nc(F)c(Cl)c(N)c1Cl)C(=O)Sc1cccs1 (stereo not drawn) [Compound 121] | 5 (Level 5: the growth inhibition rate is greater than 85%) |
| CSC(=O)C(C)Oc1nc(Cl)c(Cl)c(N)c1Cl (stereo not drawn) [Compound 2] | 5 (Level 5: the growth inhibition rate is greater than 85%) |
| CCCSC(=O)C(C)Oc1nc(F)c(Cl)c(N)c1Cl (stereo not drawn) [Compound 67] | 5 (Level 5: the growth inhibition rate is greater than 85%) |
| CC(Oc1nc(F)c(Cl)c(N)c1Cl)C(=O)SC(N)=O (stereo not drawn) [Compound 100] | 5 (Level 5: the growth inhibition rate is greater than 85%) |
| CSC(=O)C(C)Oc1ncc(I)c(N)c1I (stereo not drawn) [Compound 13] | 5 (Level 5: the growth inhibition rate is greater than 85%) |
| COC(=O)CSC(=O)C(C)Oc1nc(F)c(Cl)c(N)c1Cl (stereo not drawn) [Compound 93] | 5 (Level 5: the growth inhibition rate is greater than 85%) |
| CC(Oc1nc(F)c(Cl)c(N)c1Cl)C(=O)SCCF (stereo not drawn) [Compound 158] | 5 (Level 5: the growth inhibition rate is greater than 85%) |
| CNc1c(Cl)c(F)nc(OC(C)C(=O)SC)c1Cl (stereo not drawn) [Compound 127] | 5 (Level 5: the growth inhibition rate is greater than 85%) |
| CCCCCCCCCSC(=O)C(C)Oc1nc(F)c(Cl)c(N)c1Cl (stereo not drawn) [Compound 140] | 5 (Level 5: the growth inhibition rate is greater than 85%) |
| CC(Oc1nc(F)c(Cl)c(N)c1Cl)C(=O)Sc1cccnc1 (stereo not drawn) [Compound 115] | 5 (Level 5: the growth inhibition rate is greater than 85%) |
| C#CCSC(=O)C(C)Oc1nc(F)c(Cl)c(N)c1Cl (stereo not drawn) [Compound 90] | 5 (Level 5: the growth inhibition rate is greater than 85%) |

The molecules below were run on Digitaria sanguinalis in the same assay as above. Settings: post-emergence spray, after 3 weeks, fresh weight inhibition.
Type: in vivo
Outline: as §1

| Structure (SMILES) | Activity level (growth inhibition rate) Digitaria sanguinalis |
| --- | --- |
| CCCCCCCCSC(=O)C(C)Oc1nc(F)c(Cl)c(N)c1Cl (stereo not drawn) [Compound 73] | 5 (Level 5: the growth inhibition rate is greater than 85%) |
| CSC(=O)C(C)Oc1ncc(C(C)C)c(N)c1Cl (stereo not drawn) [Compound 9] | 5 (Level 5: the growth inhibition rate is greater than 85%) |
| CC(Oc1nc(F)c(Cl)c(N)c1Cl)C(=O)Sc1cccs1 (stereo not drawn) [Compound 121] | 5 (Level 5: the growth inhibition rate is greater than 85%) |
| CSC(=O)C(C)Oc1nc(Cl)c(Cl)c(N)c1Cl (stereo not drawn) [Compound 2] | 5 (Level 5: the growth inhibition rate is greater than 85%) |
| CCCSC(=O)C(C)Oc1nc(F)c(Cl)c(N)c1Cl (stereo not drawn) [Compound 67] | 5 (Level 5: the growth inhibition rate is greater than 85%) |
| CC(Oc1nc(F)c(Cl)c(N)c1Cl)C(=O)SC(N)=O (stereo not drawn) [Compound 100] | 5 (Level 5: the growth inhibition rate is greater than 85%) |
| CSC(=O)C(C)Oc1ncc(I)c(N)c1I (stereo not drawn) [Compound 13] | 5 (Level 5: the growth inhibition rate is greater than 85%) |
| COC(=O)CSC(=O)C(C)Oc1nc(F)c(Cl)c(N)c1Cl (stereo not drawn) [Compound 93] | 5 (Level 5: the growth inhibition rate is greater than 85%) |
| CC(Oc1nc(F)c(Cl)c(N)c1Cl)C(=O)SCCF (stereo not drawn) [Compound 158] | 5 (Level 5: the growth inhibition rate is greater than 85%) |
| CNc1c(Cl)c(F)nc(OC(C)C(=O)SC)c1Cl (stereo not drawn) [Compound 127] | 5 (Level 5: the growth inhibition rate is greater than 85%) |
| CCCCCCCCCSC(=O)C(C)Oc1nc(F)c(Cl)c(N)c1Cl (stereo not drawn) [Compound 140] | 5 (Level 5: the growth inhibition rate is greater than 85%) |
| CC(Oc1nc(F)c(Cl)c(N)c1Cl)C(=O)Sc1cccnc1 (stereo not drawn) [Compound 115] | 5 (Level 5: the growth inhibition rate is greater than 85%) |
| C#CCSC(=O)C(C)Oc1nc(F)c(Cl)c(N)c1Cl (stereo not drawn) [Compound 90] | 5 (Level 5: the growth inhibition rate is greater than 85%) |
